Results as given in US9714247B2, “Multiple kinase pathway inhibitors” (Mannkind Corporation, priority 2012, dated 2017).
Read-outs that look alike come from different tables or passages of the source.

Key:
[1] = test system: Ramos; experiment: CellTiter-Glo proliferation/viability assay; type: cell-based, human
[2] = molecular target: BTK (Homo sapiens (Human), UniProt Q06187)
[3] = molecular target: T1, Lyn (Homo sapiens (Human), UniProt P07948); experiment: biochemical
[4] = test system: DoHH2; experiment: CellTiter-Glo proliferation/viability assay; type: cell-based, human; conditions: read-out: DoHH2 EC50
[5] = molecular target: T2, Src (Homo sapiens (Human), UniProt P12931); conditions: read-out: Src IC50
[6] = molecular target: T1, Lyn; conditions: read-out: Lyn IC50
[7] = molecular target: T2, Src; experiment: biochemical
[8] = Homo sapiens, Ramos; 48 hrs; read-out: Ramos EC50
[9] = Homo sapiens, Ramos, 48 h; read-out: Ramos EC50

BTK, sequence (Q06187 whole entry): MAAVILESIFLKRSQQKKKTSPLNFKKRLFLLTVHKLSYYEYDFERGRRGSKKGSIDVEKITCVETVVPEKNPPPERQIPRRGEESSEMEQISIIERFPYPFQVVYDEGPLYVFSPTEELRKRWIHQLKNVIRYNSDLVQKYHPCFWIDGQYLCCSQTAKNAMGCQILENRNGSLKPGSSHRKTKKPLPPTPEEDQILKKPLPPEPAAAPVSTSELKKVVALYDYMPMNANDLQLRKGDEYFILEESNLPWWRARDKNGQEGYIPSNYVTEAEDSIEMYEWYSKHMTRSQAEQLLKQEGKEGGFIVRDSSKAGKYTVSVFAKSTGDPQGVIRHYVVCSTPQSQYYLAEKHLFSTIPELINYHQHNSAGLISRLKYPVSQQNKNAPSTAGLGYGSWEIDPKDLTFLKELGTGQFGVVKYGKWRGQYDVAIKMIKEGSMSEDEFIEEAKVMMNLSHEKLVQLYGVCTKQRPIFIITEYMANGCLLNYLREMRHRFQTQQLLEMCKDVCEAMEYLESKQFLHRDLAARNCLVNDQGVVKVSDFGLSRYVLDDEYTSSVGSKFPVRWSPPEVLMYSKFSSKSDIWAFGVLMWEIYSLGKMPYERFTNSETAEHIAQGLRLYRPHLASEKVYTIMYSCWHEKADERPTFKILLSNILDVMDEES
T1 sequence (P07948 whole entry): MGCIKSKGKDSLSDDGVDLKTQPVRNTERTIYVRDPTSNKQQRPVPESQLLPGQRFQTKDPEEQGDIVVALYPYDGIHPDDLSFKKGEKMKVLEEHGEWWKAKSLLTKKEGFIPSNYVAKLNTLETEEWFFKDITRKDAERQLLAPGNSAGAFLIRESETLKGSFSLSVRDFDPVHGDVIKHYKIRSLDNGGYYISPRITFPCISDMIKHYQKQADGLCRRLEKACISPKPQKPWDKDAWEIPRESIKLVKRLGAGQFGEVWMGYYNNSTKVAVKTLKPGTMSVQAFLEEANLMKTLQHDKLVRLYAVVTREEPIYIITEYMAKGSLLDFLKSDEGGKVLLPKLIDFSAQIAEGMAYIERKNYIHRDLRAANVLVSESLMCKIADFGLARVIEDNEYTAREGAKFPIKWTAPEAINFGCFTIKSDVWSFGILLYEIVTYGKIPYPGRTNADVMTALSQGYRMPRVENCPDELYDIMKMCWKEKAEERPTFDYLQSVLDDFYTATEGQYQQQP
T2 sequence (P12931 whole entry, looked up): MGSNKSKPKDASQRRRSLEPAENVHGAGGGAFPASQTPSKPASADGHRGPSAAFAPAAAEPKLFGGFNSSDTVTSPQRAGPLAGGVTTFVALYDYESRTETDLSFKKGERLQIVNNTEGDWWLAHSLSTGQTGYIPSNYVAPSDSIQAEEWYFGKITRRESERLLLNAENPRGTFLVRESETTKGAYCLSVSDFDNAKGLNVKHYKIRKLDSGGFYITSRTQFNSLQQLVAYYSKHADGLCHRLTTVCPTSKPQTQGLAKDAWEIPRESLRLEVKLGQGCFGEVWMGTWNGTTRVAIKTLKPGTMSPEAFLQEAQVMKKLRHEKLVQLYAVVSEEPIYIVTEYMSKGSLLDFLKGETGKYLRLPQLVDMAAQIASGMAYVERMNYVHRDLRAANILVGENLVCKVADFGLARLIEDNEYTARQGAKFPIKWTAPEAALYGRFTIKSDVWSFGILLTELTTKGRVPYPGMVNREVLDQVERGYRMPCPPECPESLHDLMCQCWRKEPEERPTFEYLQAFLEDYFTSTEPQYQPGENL

EC50 [1, 8]	IC50 ([2]; read-out: BTK IC50)	IC50 [3]	IC50 [5]	IC50 [6]	EC50 [1, 9]	IC50 [2]	IC50 [7]	EC50 ([1]; 48 hrs; read-out: Ramos EC50)	Compound	EC50 ([4]; Homo sapiens, DOHH-2, 48 hrs)	EC50 ([1]; Homo sapiens, Ramos, 48 h, read-out: Ramos EC50)	EC50 ([4]; Homo sapiens, DOHH-2, 48 h)	EC50 ([4]; 48 hrs)
				> 5 µM	> 10 µM	100 to 1000 nM	1000 to 5000 nM		COCCn1c(=O)c(-c2c(F)cccc2F)cc2cnc(Nc3ccc(F)cn3)cc21 [Compound 126, 3-(2,6-difluorophenyl)-7-((5-fluoropyridin-2-yl)amino)-1-(2-methoxyethyl)-1,6-naphthyridin-2(1H)-one]	1000 to 10000 nM			
> 10 µM	> 5000 nM	100 to 1000 nM	< 100 nM						CCN(CC)CCOc1ccc(Nc2cc3c(cn2)cc(-c2cccnc2)c(=O)n3CC)nc1 [Compound 103, 7-((5-(2-(diethylamino)ethoxy)pyridin-2-yl)amino)-1-ethyl-3-(pyridin-3-yl)-1,6-naphthyridin-2(1H)-one]	1000 to 10000 nM			
1 to 10 µM	< 100 nM	100 to 1000 nM	< 100 nM						CCN(CC)CCOc1ccc(Nc2cc3c(cn2)cc(-c2c(F)cc(Cl)cc2F)c(=O)n3CC)nc1 [Compound 98, 3-(4-chloro-2,6-difluorophenyl)-7-((5-(2-(diethylamino)ethoxy)pyridin-2-yl)amino)-1-ethyl-1,6-naphthyridin-2(1H)-one]	1000 to 10000 nM			
> 10 µM				> 5 µM			1000 to 5000 nM		O=c1c(-c2c(F)cccc2F)cc2cnc(Nc3ccc(F)cn3)cc2n1[C@H]1CCNC1 [Compound 149, (S)-3-(2,6-difluorophenyl)-7-((5-fluoropyridin-2-yl)amino)-1-(pyrrolidin-3-yl)-1,6-naphthyridin-2(1H)-one]	1000 to 10000 nM			
1 to 10 µM		1000 to 5000 nM	< 100 nM						CCN(CC)CCOc1ccc(Nc2cc3c(cn2)cc(-c2ccccc2)c(=O)n3C2CCCCC2)nc1 [Compound 74, 1-cyclohexyl-7-(5-(2-(diethylamino)ethoxy)pyridin-2-ylamino)-3-phenyl-1,6-naphthyridin-2(1H)-one]	1000 to 10000 nM			
	< 100 nM		< 100 nM	< 0.1 µM				1 to 10 µM	CCN(CC)CCOc1ccc(Nc2cc3c(cn2)cc(-c2c(Cl)cccc2Cl)c(=O)n3C2CCOC2)nc1 (single isomer, unassigned) [Compound 146, (R or S)-3-(2,6-dichlorophenyl)-7-((5-(2-(diethylamino)ethoxy)pyridin-2-yl)amino)-1-(tetrahydrofuran-3-yl)-1,6-naphthyridin-2(1H)-one]				< 1000 nM
	< 100 nM		< 100 nM	< 0.1 µM				> 10 µM	O=c1c(-c2c(Cl)cccc2Cl)cc2cnc(Nc3ccc(F)cn3)cc2n1C1CCOC1 (single isomer, unassigned) [Compound 148, (R or S)-3-(2,6-dichlorophenyl)-7-((5-fluoropyridin-2-yl)amino)-1-(tetrahydrofuran-3-yl)-1,6-naphthyridin-2(1H)-one]				< 1000 nM
> 10 µM	< 100 nM		< 100 nM	< 0.1 µM					CCN(CC)CCOc1ccc(Nc2cc3c(cn2)cc(-c2c(Cl)cccc2OC)c(=O)n3CC)nc1 [Compound 108, 3-(2-chloro-6-methoxyphenyl)-7-((5-(2-(diethylamino)ethoxy)pyridin-2-yl)amino)-1-ethyl-1,6-naphthyridin-2(1H)-one]	< 1000 nM			
> 10 µM	< 100 nM	100 to 1000 nM	> 5000 nM						CCN(CC)CCOc1ccc(Nc2cc3c(cn2)cc(-c2ccccc2Cl)c(=O)n3CC)nc1 [Compound 106, 3-(2-chlorophenyl)-7-((5-(2-(diethylamino)-ethoxy)pyridin-2-yl)amino)-1-ethyl-1,6-naphthyridin-2(1H)-one]	< 1000 nM			
			< 100 nM	> 5 µM	< 1 µM	100 to 1000 nM			CCn1c(=O)c(Br)cc2cnc(Nc3ccc(C)cn3)cc21 [Compound 88]	< 1000 nM			
1 to 10 µM		100 to 1000 nM	< 100 nM			1000 to 5000 nM			CCN(CC)CCOc1ccc(Nc2cc3c(cn2)cc(-c2cccc(SC)c2)c(=O)n3CC)nc1 [Compound 105, 7-((5-(2-(diethylamino)ethoxy)pyridin-2-yl)amino)-1-ethyl-3-(3-(methylthio)phenyl)-1,6-naphthyridin-2(1H)-one]	1000 to 10000 nM			

Further lines, the compound ahead of its results:

Compound	EC50 [1, 8]	IC50 ([2]; read-out: BTK IC50)	IC50 [3]	IC50 [5]	IC50 [6]	EC50 [1, 9]	IC50 [2]	IC50 [7]	EC50 ([1]; 48 hrs; read-out: Ramos EC50)	EC50 ([4]; Homo sapiens, DOHH-2, 48 hrs)	EC50 ([1]; Homo sapiens, Ramos, 48 h, read-out: Ramos EC50)	EC50 ([4]; Homo sapiens, DOHH-2, 48 h)	EC50 ([4]; 48 hrs)
CCn1c(=O)c(-c2nccs2)cc2cnc(Nc3ccc(C)cn3)cc21 [Compound 68]	> 10 µM	> 5000 nM	1000 to 5000 nM	> 5000 nM						1000 to 10000 nM			
CCn1c(=O)c(-c2ccccc2)cc2cnc(Nc3ccc(C(=O)N4CCOCC4)cn3)cc21 [Compound 4, 1-Ethyl-7-[5-(morpholine-4-carbonyl)-pyridin-2-ylamino]-3-phenyl-1H-[1,6]naphthyridin-2-one]	< 1 µM	> 5000 nM			< 0.1 µM			100 to 1000 nM		1000 to 10000 nM			
CCN(CC)CCOc1cnc(Nc2cc3c(cn2)cc(-c2ccccc2)c(=O)n3CC)nc1 [Compound 3, 7-[5-(2-Diethylamino-ethoxy)-pyrimidin-2-ylamino]-1-ethyl-3-phenyl-1H-[1,6]naphthyridin-2-one]	> 10 µM				> 5 µM		1000 to 5000 nM	1000 to 5000 nM		1000 to 10000 nM			
CCn1c(=O)c(C#CC(C)(C)C)cc2cnc(Nc3ccc(C)cn3)cc21 [Compound 39]		> 5000 nM			> 5 µM	1 to 10 µM		100 to 1000 nM		1000 to 10000 nM			
CCn1c(=O)c(-c2ccccc2)cc2cnc(Nc3ccnc(O)n3)cc21 [Compound 63, 1-Ethyl-7-(2-hydroxy-pyrimidin-4-ylamino)-3-phenyl-1H-[1,6]naphthyridin-2-one]	1 to 10 µM		100 to 1000 nM	< 100 nM			1000 to 5000 nM			1000 to 10000 nM			
CCn1c(=O)c(C2CCC2)cc2cnc(Nc3ccc(C)cn3)cc21 [Compound 37, 3-Cyclobutyl-1-ethyl-7-(5-methyl-pyridin-2-ylamino)-1H-[1,6]naphthyridin-2-one]	> 10 µM		1000 to 5000 nM	> 5000 nM			100 to 1000 nM			> 10000 nM			
CCN(CC)CCOc1ccc(Nc2cc3c(cn2)cc(C(C)C)c(=O)n3C)nc1 [Compound 59, 7-[5-(2-Diethylamino-ethoxy)-pyridin-2-ylamino]-3-isopropyl-1-methyl-1H-[1,6]naphthyridin-2-one]	> 10 µM							100 to 1000 nM		1000 to 10000 nM			
CCn1c(=O)c(-c2cc(SC)ccc2F)cc2cnc(Nc3ccc(N(C)C4CCN(C)CC4)cn3)cc21 [Compound 116, 1-ethyl-3-(2-fluoro-5-(methylthio)phenyl)-7-((5-(methyl(1-methylpiperidin-4-yl)amino)pyridin-2-yl)amino)-1,6-naphthyridin-2(1H)-one]			< 100 nM								1 to 10 µM	< 1000 nM	
CCn1c(=O)c(-c2cccc(C)c2)cc2cnc(Nc3ccc(C)cn3)cc21 [Compound 41, 1-ethyl-7-(5-methylpyridin-2-ylamino)-3-m-tolyl-1,6-naphthyridin-2(1H)-one]		> 5000 nM	1000 to 5000 nM	> 5000 nM		> 10 µM				> 10000 nM			
CCN(CC)CCOc1ccc(Nc2cc3c(cn2)cc(-c2ccccc2)c(=O)n3C)nc1 [Compound 15, 7-[5-(2-Diethylamino-ethoxy)-pyridin-2-ylamino]-1-methyl-3-phenyl-1H-[1,6]naphthyridin-2-one]	1 to 10 µM	< 100 nM	100 to 1000 nM	< 100 nM						< 1000 nM			
CCn1c(=O)c(-c2ccc(F)cc2)cc2cnc(Nc3ccc(C)cn3)cc21 [Compound 26]	> 10 µM	> 5000 nM		> 5000 nM	> 5 µM					> 10000 nM			
CCn1c(=O)c(CC(C)C)cc2cnc(Nc3ccc(C)cn3)cc21 [Compound 20, 1-Ethyl-3-isobutyl-7-(5-methyl-pyridin-2-ylamino)-1H-[1,6]naphth yridin-2-one]				> 5000 nM	> 5 µM	> 10 µM	100 to 1000 nM			> 10000 nM			
CCn1c(=O)c(-c2ccccc2Cl)cc2cnc(Nc3ccc(F)cn3)cc21 [Compound 71, 3-(2-chlorophenyl)-1-ethyl-7-(5-fluoropyridin-2-ylamino)-1,6-naphthyridin-2(1H)-one]	> 10 µM		100 to 1000 nM	< 100 nM			1000 to 5000 nM			1000 to 10000 nM			
CCn1c(=O)c(-c2ccccc2)cc2cnc(Nc3ncc(C)o3)cc21 [Compound 9, 1-Ethyl-7-(5-methyl-oxazol-2-ylamino)-3-phenyl-1H-[1,6]naphthyridin-2-one]				> 5000 nM	> 5 µM	> 10 µM	1000 to 5000 nM			1000 to 10000 nM			
CCn1c(=O)c(-c2cccs2)cc2cnc(Nc3ccc(C)cn3)cc21 [Compound 11, 1-Ethyl-7-(5-methyl-pyridin-2-ylamino)-3-thiophen-2-yl-1H-[1,6]naphthyridin-2-one]	> 10 µM			> 5000 nM	> 5 µM		100 to 1000 nM			> 10000 nM			
CCn1c(=O)c(-c2ccsc2)cc2cnc(Nc3ccc(C)cn3)cc21 [Compound 10, 1-Ethyl-7-(5-methyl-pyridin-2-ylamino)-3-thiophen-3-yl-1H-[1,6]naphthyridin-2-one]	> 10 µM			> 5000 nM	> 5 µM		1000 to 5000 nM			> 10000 nM			
